Where a SMILES comes first, the peptide text is derived from it. The star is where a group is joined. Cbz = O=C(OCc1ccccc1)*; OtBu = CC(C)(C)O*
Assays:
20S proteasome = target: T1, 20S proteasome (Mus musculus, UniProt O55234); assay: Proteasome inhibition assay, compounds added directly to 20S proteasome preparation (LLVY-AMC cleavage); format: biochemical; settings: 20S proteasome preparations from packed whole blood of mice, FIG. 2A
T1 construct: 20S proteasome preparations from packed whole blood of mice; from tissue; host or cells: packed whole blood of mice (EDTA lysate supernatant)
Method: If packed whole blood is used as a source for proteasomes, 1 ml blood collected in heparinized microtainer tubes is diluted 1:1 (v/v) with saline and centrifuged at 500×g (Sorvall RT 6000D, rotor H-1000B at 1500 rpm) for 5 min at room temperature. The supernatant is removed and the PWB pellet resuspended in 1 ml PBS and microcentrifuged at 6600×g (Eppendorf 5415C at 7000 rpm) for 10 min at room temperature. The supernatant is removed and the PWB pellet is then frozen at −70° C. prior to proteasome analysis.
To prepare the proteasomes, WBC or RBC or PWB 1:1 (v/v) are lysed using 5 mM EDTA, pH 8.0 for 30 min and centrifuged at 15,000×g (Eppendorf 5415C at 14,000 rpm) for 10 min at room temperature. The supernatant containing proteasomes is placed on ice and the protein concentration is determined. […]
(§1) For the assay, 50 μl sample—i.e., 20 proteasome; or standard; or ˜50 μg/μl WBC; or ˜500 μg/μl RBC or ˜1000 μg/μl PWB samples some containing test compounds is added to 50 μl substrate buffer (20 mM HEPES, 0.5 mM EDTA, 0.05% SDS, and 120 μM LLVY-AMC; pH 8.0) in a 96-well black fluorescence plate. The reaction is measured with a fluorescence spectrophotometer (excitation max.: 380 nm; emission max.: 440 nm, and velocity of reaction determined. As shown, the substrate is Leu-Leu-Val-Tyr-AMC. AMC is amido-4-methylcoumarin. […]

[1] = target: T2, proteasomes of red blood cells (Mus musculus, UniProt O55234); assay: Proteasome inhibition assay, red blood cells treated with compounds, then proteasomes isolated and protease activity assessed; format: cell-based; settings: red blood cells treated first, then proteasomes isolated; OSA compared with isoginkgetin; FIG. 2B
T2 construct: endogenous in cells; host or cells: red blood cells
Method: If RBC are used, the RBC pellet obtained in the process of obtaining WBC described above is recovered and washed with 3 ml PBS, then centrifuged at 500×g (Sorvall RT 6000D, rotor H-1000B at 1500 rpm) for 5 min at room temperature. The supernatant is removed and the RBC pellet resuspended in 1 ml PBS and microcentrifuged at 6600×g (Eppendorf 5415C at 7000 rpm) for 10 min at room temperature. The supernatant is again removed and the RBC pellet is then frozen at −70° C. prior to proteasome analysis.
To prepare the proteasomes, WBC or RBC or PWB 1:1 (v/v) are lysed using 5 mM EDTA, pH 8.0 for 30 min and centrifuged at 15,000×g (Eppendorf 5415C at 14,000 rpm) for 10 min at room temperature. The supernatant containing proteasomes is placed on ice and the protein concentration is determined.
as §1

C57 male black mice = assay: Stimulation of hair growth on shaved dorsal trunk, topical application; format: in vivo; settings: 5 days, 1% OSA (100 μl) or 10% isoginkgetin (50 μl), after 17 days and 26 days, FIGS. 3A and 3B
Method: C57 male black mice, 8 weeks old, were acclimated for 7 days in individual cages and fed standard diets and water ad libitum. The mice were anesthetized prior to manipulation. The dorsal trunk of each mouse was shaved and then treated topically starting the following day with a 1.0% solution of OSA (100 μl) which was applied for each of 5 days. A similar protocol was followed using 50 μl solution of isoginkgetin at percentages of 1, 5 and 10% wt/wt. The progression of hair growth is monitored visually and photographed.
FIGS. 3A and 3B show the results for 1% OSA or 10% isoginkgetin after 17 days and 26 days respectively.

SMILES: CC[C@H](C)[C@H](NC(=O)OCc1ccccc1)C(=O)N[C@@H](CCC(=O)OC(C)(C)C)C(=O)N[C@@H](C)C(=O)N[C@H](C=O)CC(C)C [OSA] (Cbz-IE(OtBu)AL-aldehyde)
- inhibition of the Vmax of the proteolytic cleavage of the LLVY-AMC substrate (20S proteasome): similarly inhibit the Vmax
- proteasome inhibition when red blood cells are treated with the compounds [1]: more effective
- growth of hair in the dorsal area as compared to control (C57 male black mice): stimulate the growth of hair
